# Assay results: patent publication US5380759A, “Methyl N-[6-(3,4,5-trimethoxybenzloxy)imidazo[1,2-b]pyridazin-2-zyl]carbamate used to treat leukemia” (priority 1987, dated 1995)
# How the values were obtained:
# P388 D1 cells = assay: P388 D1 colony-forming assay; format: cell-based; settings: Mus musculus, P388D1; 24 h exposure, 14 days colony growth; read-out: IC50 colony formation
# Method: B) P338D1 Colony-forming Assay
# In this assay, cells from an in vitro-adapted line of the mouse lymphoid neoplasm, P388 are first exposed to serially diluted concentrations of test compound over a 24 hour period in culture. Thereafter, the ability of such treated cells to form discrete colonies over a 14 day period after resuspension in a semi-solid drug-free medium is determined.
# Initially cells in log growth are plated into individual 25 cm^2 tissue culture flasks each containing a final volume of 5 mls of Hepes buffered RPMI 1640 culture medium supplemented with 10 percent foetal calf serum, antibiotics and test compound. All compounds are formulated initially at appropriate concentrations in DMSO, 25 microliters of which is then added to each flask. All compounds are evaluated at concentrations ranging serially in four fold decrements from a top concentration some four fold greater than that already known to inhibit the proliferation of these cells by about 80 to 90 percent in the primary proliferative assay.
# After 24 hrs exposure to the test compound the cells are counted and a known number of live cells transferred to a 15 ml centrifuge tube to which 4 mls of a 0.25 percent low temperature gelling agarose solution in complete RPMI tissue culture medium is then added. After 13 days incubation at 37° C., 1 ml of 1% p-Iodonitrotetrazolium violet is added to the top of each tube and allowed to permeate through the agarose for a further 24 to 48 hrs. This dye is metabolised by living cells to produce an insoluble red crystalline product which facilitates counting of the colonies. Samples are taken from each tube and the number of colonies containing a minimum of 50 cells is determined. The concentration of compound necessary to inhibit colony formation by 50 percent relative to that of control cells incubated under identical conditions but in the absence of the test compound is determined.
# P388/BCNU = assay: In vivo activity against drug resistant tumour P388/BCNU; design: species or system mouse; settings: optimum dose 7.5 mg/kg
# Method: (§1) CD2-F1 mice, of the same sex, weighing within a 3 gram range surrounding 20 g, are used for this test. Control and test animals are injected intraperitoneally with a suspension of 10^6 viable P388/O tumour cells on day 0. In each test several dose levels which bracket the LD20 for the compound are evaluated; each dose level group contains 6 animals. The test compounds are prepared either in physiologic saline containing 0.05% Tween 80 or distilled water containing 5% dextrose and are administered intraperitoneally on days 1,5 and 9 relative to tumour implant. Doses are on a mg/kg basis according to individual animals' body weights. The day of death for each animal is recorded and the median day of death identified for each group. The difference between the median survival time for treated and control groups is expressed as a percentage increase in life span (% ILS).
# (§2) E. Activity Against Drug-Resistant Tumours
# Using a similar procedure to the Lymphocytic Leukaemia P388/O test, the compound of Example 1 was evaluated against P388/O tumours which had been made resistant to the following standard, clinically used anti-tumour agents:
# bis-chloronitrosourea (BCNU)
# P388/Cis--Pt = assay: In vivo activity against drug resistant tumour P388/Cis-Pt; design: species or system mouse; settings: optimum dose 10.0 mg/kg
# P388/AMSA = assay: In vivo activity against drug resistant tumour P388/AMSA; design: species or system mouse; settings: optimum dose 5.0 mg/kg
# P388/ADR = assay: In vivo activity against drug resistant tumour P388/ADR; design: species or system mouse; settings: optimum dose 10.0 mg/kg
# Method: as §1, §2
# (§3) Using a similar procedure to the Lymphocytic Leukaemia P388/O test, the compound of Example 1 was evaluated against P388/O tumours which had been made resistant to the following standard, clinically used anti-tumour agents: […]
# P388/ActD = assay: In vivo activity against drug resistant tumour P388/ActD; design: species or system mouse; settings: optimum dose 12.5 mg/kg
# Method: as §1, §2, §3
# P388/CPA = assay: In vivo activity against drug resistant tumour P388/CPA; design: species or system mouse; settings: optimum dose 12.5 mg/kg
# P388/VCR = assay: In vivo activity against drug resistant tumour P388/VCR; design: species or system mouse; settings: optimum dose 12.5 mg/kg
# Method: as §1, §2, §3
# [1] = test system: A549 human lung carcinoma cells; assay: In vitro activity against human tumour cell line A549 (proliferation); format: cell-based; settings: A549, 96 h, MTT, read-out: IC50
# Method: Cells from the human tumour cell lines DLD-1, HCT-116, WiDr and A549 are exposed to serially diluted concentrations of test compounds over a 96 hour period in culture. The ability of such cells to proliferate over the test period is determined.
# Cells in log growth are plated into 96 well multiwell tissue culture dishes in 100 μl/well of RPMI 1640 culture medium supplemented with 10% foetal calf serum, antibiotics and test compound. All compounds are formulated initially at appropriate concentrations in DMSO, the final concentrations in this solvent being twenty times that required in the plate. A final 1 in 10 dilution in complete medium is then made before adding 100 μl to each well of the plate. All compounds are evaluated at concentrations ranging serially in four fold decrements from a top concentration some four fold greater than that already known to inhibit the proliferation of cells from the mouse lymphoid neoplasm, P388D1 by about 80 to 90 percent in a primary proliferative assay.
# After 96 hours the proliferation of cells exposed to test compound is compared with control untreated cells by one of two methods:
# b) 20 μl of MTT (5 mg/ml in PBS) is added to each well. After an incubation period of 4 hours the medium from each well is aspirated and replaced with 200 μl DMSO to dissolve the formazan crystals formed. Absorbances are read by an ELISA plate spectrophotometer at a wavelength of 540 nm. The IC50 is defined as that concentration of drug which decreases absorbance to 50% of that in control (drug-free) cultures. This method is used for the WiDr, HCT-116 and A549 cell lines.
# M5076 = assay: In vivo activity against murine tumour M5076; design: species or system mouse; settings: 5 mg/kg i.p. days 1, 5 and 9; 1 expt
# Method: as §1
# G. In vivo activity of the compound of Example 1 against murine tumours
# Using a similar procedure to the Lymphocytic Leukaemia P388/O test the compound of Example 1 was evaluated against the murine tumours B16, L1210 and M5076. A suspension of 10^6 tumour cells is implanted intraperitoneally into control and test animals on day zero. B16 tumour cells are administered intraperitoneally as a 1:10 Brei of cells on day zero. […] The day of death for each animal is recorded and the %ILS (percentage increase in life-span) calculated.
# L1210 = assay: In vivo activity against murine tumour L1210; design: species or system mouse
# strains of P388 = assay: In vivo activity against strains of P388 resistant to major clinically used anti-tumour agents; design: species or system mouse; settings: resistant to cyclophosphamide, methotrexate, actinomycin D, vincristine, adriamycin, 5-fluorouracil, cis-platinum, bis-chloronitrosourea and amsacrine
# Method: as §1, §2, §3
compound,measurement,setting,value
"COC(=O)Nc1cn2nc(OCc3cc(OC)c(OC)c(OC)c3)ccc2n1 [Example 1, Methyl N-[6-(3,4,5-trimethoxybenzyloxy)imidazo[1,2-b]pyridazin-2-yl]carbamate]",IC50,P388 D1 cells,13.2 nM
same,60 Day Survivors,P388/BCNU,0/6
same,% ILS,P388/BCNU,+131%
same,60 Day Survivors,P388/Cis--Pt,1/6
same,% ILS,P388/Cis--Pt,+50%
same,60 Day Survivors,P388/AMSA; (day 31),4/6
same,% ILS,P388/AMSA,+134%
same,60 Day Survivors,P388/ADR,0/6
same,% ILS,P388/ADR,+90%
same,60 Day Survivors,P388/ActD,1/6
same,% ILS,P388/ActD,+109%
same,60 Day Survivors,P388/CPA,1/6
same,% ILS,P388/CPA,+150%
same,60 Day Survivors,P388/VCR,3/6
same,% ILS,P388/VCR,+145%
same,IC50,[1],24 nM
same,Mean % ILS (±SEM),M5076,28%
same,Mean % ILS (±SEM),"L1210; 10 mg/kg i.p. days 1, 5 and 9, 2 expts",134 (±72) %
same,activity in vivo against L1210 leukaemia,L1210; in words,good activity
same,activity in vivo against resistant strains of P388,strains of P388,good activity in vivo
